The values that follow come from ChEMBL document CHEMBL3112576, “Synthesis and biological evaluation of a new series of ebselen derivatives as glutathione peroxidase (GPx) mimics and cholinesterase inhibitors against Alzheimer's disease” (Bioorg Med Chem, 2014).

Data set [1] has as its target Acetylcholinesterase (Homo sapiens, UniProt P22303). The data set can be described thus: Inhibition of human erythrocyte acetylcholinesterase using acetylthiocholine chloride as substrate preincubated for 15 mins followed by substrate addition by Ellman's method. Background: DTNB colorimetry detects thiols as they appear.
For data set [2], the target named is Cholinesterase (Equus caballus, UniProt P81908).
Sequence of Cholinesterase (P81908 whole entry): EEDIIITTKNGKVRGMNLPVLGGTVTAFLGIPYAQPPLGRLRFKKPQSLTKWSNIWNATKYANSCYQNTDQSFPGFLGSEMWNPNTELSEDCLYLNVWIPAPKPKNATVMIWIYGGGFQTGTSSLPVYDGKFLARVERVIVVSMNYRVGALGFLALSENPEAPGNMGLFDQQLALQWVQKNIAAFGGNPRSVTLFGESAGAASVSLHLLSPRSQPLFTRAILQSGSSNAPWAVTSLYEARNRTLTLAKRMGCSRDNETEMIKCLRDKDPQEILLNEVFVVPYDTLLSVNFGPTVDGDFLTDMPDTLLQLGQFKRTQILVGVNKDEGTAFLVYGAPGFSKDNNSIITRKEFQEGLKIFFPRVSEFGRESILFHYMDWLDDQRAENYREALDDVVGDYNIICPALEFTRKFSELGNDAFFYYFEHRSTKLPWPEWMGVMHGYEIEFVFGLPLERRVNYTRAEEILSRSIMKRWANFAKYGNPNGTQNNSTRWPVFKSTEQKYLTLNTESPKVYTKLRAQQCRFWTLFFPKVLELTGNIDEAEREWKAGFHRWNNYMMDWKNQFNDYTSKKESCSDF
Description: Inhibition of equine serum butyrylcholinesterase using butyrylthiocholine chloride as substrate preincubated for 15 mins followed by substrate addition by Ellman's method
In data set [3] the target is Acetylcholinesterase (Electrophorus electricus, UniProt O42275).
Sequence of Acetylcholinesterase (Electrophorus electricus, UniProt O42275) (O42275 whole entry): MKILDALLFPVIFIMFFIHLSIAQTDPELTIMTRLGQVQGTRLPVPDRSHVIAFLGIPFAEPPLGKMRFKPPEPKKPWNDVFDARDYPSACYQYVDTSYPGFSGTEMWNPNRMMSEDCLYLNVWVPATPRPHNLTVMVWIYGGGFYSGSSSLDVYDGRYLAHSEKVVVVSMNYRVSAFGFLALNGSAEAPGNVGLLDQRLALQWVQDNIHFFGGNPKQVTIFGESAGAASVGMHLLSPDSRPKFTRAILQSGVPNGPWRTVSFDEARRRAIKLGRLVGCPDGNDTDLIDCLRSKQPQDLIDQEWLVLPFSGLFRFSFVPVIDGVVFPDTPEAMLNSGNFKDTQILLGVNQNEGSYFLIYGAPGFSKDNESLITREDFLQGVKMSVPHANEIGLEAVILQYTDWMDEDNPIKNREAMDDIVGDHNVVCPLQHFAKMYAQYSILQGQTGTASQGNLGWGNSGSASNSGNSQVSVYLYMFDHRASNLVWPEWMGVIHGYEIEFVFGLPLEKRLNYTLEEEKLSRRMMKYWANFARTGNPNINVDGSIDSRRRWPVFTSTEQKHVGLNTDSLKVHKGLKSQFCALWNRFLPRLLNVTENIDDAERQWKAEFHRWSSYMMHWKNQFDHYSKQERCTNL
Description: Inhibition of electric eel acetylcholinesterase using acetylthiocholine chloride as substrate preincubated for 15 mins followed by substrate addition by Ellman's method
Data set [4] in a line: Antioxidant activity assessed as H2O2 scavenging activity at 50 to 200 uM after 10 hrs by ferrous ion oxidation-xylenol orange assay. In kind it is functional.
Data set [5] is described as follows: GPx-like activity of the compound using 4 mM GSH/H2O2 as substrate assessed as GSH-mediated H2O2 reduction at 80 uM at pH 7.5 measured for 10 secs by spectrophotometric analysis. The class given is physicochemical. Conditions: pH 7.5, 10 s.
The nature of data set [6]: GPx-like activity of the compound using 3 mM GSH/H2O2 as substrate assessed as GSH-mediated H2O2 reduction at 80 uM at pH 7.5 measured for 10 secs by spectrophotometric analysis. In kind it is physicochemical. Conditions: pH 7.5, 10 s.
Data set [7] is described as follows: GPx-like activity of the compound using 2 mM GSH/H2O2 as substrate assessed as GSH-mediated H2O2 reduction at 80 uM at pH 7.5 measured for 10 secs by spectrophotometric analysis. In kind it is physicochemical. Particulars: pH 7.5, 10 s.
The nature of data set [8]: GPx-like activity of the compound using 1.5 mM GSH/H2O2 as substrate assessed as GSH-mediated H2O2 reduction at 80 uM at pH 7.5 measured for 10 secs by spectrophotometric analysis. Conditions: pH 7.5, 10 s. In kind it is physicochemical.
Data set [9] can be described thus: GPx-like activity of the compound using 1 mM GSH/H2O2 as substrate assessed as GSH-mediated H2O2 reduction at 80 uM at pH 7.5 measured for 10 secs by spectrophotometric analysis. In kind it is physicochemical. Particulars: pH 7.5, 10 s.
Data set [10] is described as follows: GPx-like activity of the compound using GSH/1.6 mM H2O2 as substrate assessed as GSH-mediated H2O2 reduction at 80 uM at pH 7.5 measured for 10 secs by spectrophotometric analysis. The class given is physicochemical. Conditions: pH 7.5, 10 s.
Data set [11] is described as follows: GPx-like activity of the compound using GSH/1.4 mM H2O2 as substrate assessed as GSH-mediated H2O2 reduction at 80 uM at pH 7.5 measured for 10 secs by spectrophotometric analysis. Particulars: pH 7.5, 10 s. The class given is physicochemical.
Data set [12] is described as follows: GPx-like activity of the compound using GSH/1.2 mM H2O2 as substrate assessed as GSH-mediated H2O2 reduction at 80 uM at pH 7.5 measured for 10 secs by spectrophotometric analysis. In kind it is physicochemical. Particulars: pH 7.5, 10 s.
The nature of data set [13]: GPx-like activity of the compound using GSH/1 mM H2O2 as substrate assessed as GSH-mediated H2O2 reduction at 80 uM at pH 7.5 measured for 10 secs by spectrophotometric analysis. In kind it is physicochemical. Particulars: pH 7.5, 10 s.
Data set [14] can be described thus: GPx-like activity of the compound using variable GSH/H2O2 as substrate assessed as catalytic efficiency by Lineweaver-burk plot analysis. The class given is physicochemical.
A short description of data set [15]: GPx-like activity of the compound using GSH/0.8 mM H2O2 as substrate assessed as GSH-mediated H2O2 reduction at 80 uM at pH 7.5 measured for 10 secs by spectrophotometric analysis. Particulars: pH 7.5, 10 s. In kind it is physicochemical.
Data set [16] is described as follows: GPx-like activity of the compound using variable GSH/H2O2 as substrate by Lineweaver-burk plot analysis. In kind it is physicochemical.
Data set [17] is described as follows: GPx-like activity of the compound using GSH/variable H2O2 as substrate assessed as catalytic efficiency by Lineweaver-burk plot analysis. In kind it is physicochemical.
The nature of data set [18]: GPx-like activity of the compound using GSH/variable H2O2 as substrate by Lineweaver-burk plot analysis. The class given is physicochemical.

Molecules are shown by their SMILES. Activity calls are given as the source filed them. The calls are words filed in the database; no cut-off is given here.

By IC50 is commonly meant the concentration that inhibits the measured activity by half. As usually defined, the Vmax is the top rate of the reaction or transport when substrate is in excess.

Sequence of Acetylcholinesterase (Homo sapiens, UniProt P22303) (P22303 whole entry): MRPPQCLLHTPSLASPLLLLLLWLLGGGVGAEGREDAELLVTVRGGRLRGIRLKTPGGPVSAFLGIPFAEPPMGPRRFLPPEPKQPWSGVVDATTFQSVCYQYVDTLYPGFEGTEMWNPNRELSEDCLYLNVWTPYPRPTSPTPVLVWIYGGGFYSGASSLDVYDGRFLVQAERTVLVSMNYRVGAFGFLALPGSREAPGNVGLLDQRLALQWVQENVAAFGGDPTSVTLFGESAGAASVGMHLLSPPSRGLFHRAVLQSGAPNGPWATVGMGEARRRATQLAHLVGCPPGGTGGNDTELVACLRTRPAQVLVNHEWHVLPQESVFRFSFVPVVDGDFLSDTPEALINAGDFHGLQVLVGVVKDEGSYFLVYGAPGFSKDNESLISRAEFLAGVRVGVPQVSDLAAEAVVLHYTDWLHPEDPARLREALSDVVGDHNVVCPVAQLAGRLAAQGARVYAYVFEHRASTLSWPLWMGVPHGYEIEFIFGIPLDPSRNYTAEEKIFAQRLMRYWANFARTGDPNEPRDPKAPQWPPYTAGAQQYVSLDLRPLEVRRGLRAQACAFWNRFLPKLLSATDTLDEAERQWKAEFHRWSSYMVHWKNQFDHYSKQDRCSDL

`O=c1c2ccccc2[se]n1-c1ccc(CN2CCCCC2)cc1`: the IC50 is 10.8 µM in data set [1], 5.56 µM in data set [2] and 2.36 µM in data set [3].
In the same order, the values of `COc1cc2[se]n(-c3ccc(CCN4CCCC4)cc3)c(=O)c2cc1OC` are 13.9 µM, over 15 µM and 4.32 µM.
Take `COc1cc2[se]n(-c3ccc(OCCN4CCCCC4)cc3)c(=O)c2cc1OC`: the IC50 was 0.45 µM in data set [1], 9.69 µM in data set [2] and 0.46 µM in data set [3]. In addition, in data set [4], the result was Active. The Activity is 164.86 µM/min in [5]; 150.13 µM/min in data set [6]; 126.72 µM/min in [7]; 110.89 µM/min in data set [8]; 77.43 µM/min in data set [9]; 122.64 µM/min in data set [10]. Further, the Activity in data set [11] is 109.83 µM/min; in data set [12], 98.87 µM/min; in [13], 76.93 µM/min; in [14], 1.4 mM⁻¹ min⁻¹; in [15], 53.36 µM/min; in [17], 0.74 mM⁻¹ min⁻¹. Besides, the Kcat in data set [16] is 0.0577 s⁻¹; in data set [18], 0.066 s⁻¹. Further, the Vmax in [16] was 276.24 µM/min; in [18], 316.46 µM/min.
For `COc1cc2[se]n(-c3ccc(CN4CCCC4)cc3)c(=O)c2cc1OC`, the IC50 in data set [1] was 4.31 µM; in data set [2] it was 13.4 µM; in [3], 1.06 µM.
Taken in the same sequence, the figures for `COc1cc2[se]n(-c3ccc(CN(C)Cc4ccccc4)cc3)c(=O)c2cc1OC` were over 15 µM, 3.62 µM and 1.71 µM.
Regarding `COc1cc2[se]n(-c3ccc(CN4CCCCC4)cc3)c(=O)c2cc1OC`, the IC50 in data set [1] is 1.44 µM; in [2] it was over 15 µM; in [3], 0.76 µM. The outcome in data set [4] was Active. In addition, the Activity in [5] is 185.66 µM/min; in data set [6], 166.44 µM/min; in data set [7], 147.84 µM/min; in [8] it was 130.27 µM/min; in data set [9] it was 88.35 µM/min; in data set [10] it was 150.53 µM/min. The Activity in [11] was 132.29 µM/min; in [12], 121.72 µM/min; in data set [13], 109.44 µM/min; in [14] it was 1.63 mM⁻¹ min⁻¹; in data set [15] it was 81.43 µM/min; in [17], 1.45 mM⁻¹ min⁻¹. Besides, the Kcat in data set [16] was 0.0643 s⁻¹; in [18], 0.1812 s⁻¹. In addition, the results for the Vmax in [16] and in data set [18] were 308.64 µM/min and 869.57 µM/min, respectively.
For `O=c1c2ccccc2[se]n1-c1ccc(OCCN2CCCCC2)cc1`, the figures for the IC50 in data set [1], in [2] and in data set [3] were 10.9 µM, 1.97 µM and 5.66 µM, respectively.
Regarding `COc1cc2[se]n(-c3ccc(OCCCN4CCCCC4)cc3)c(=O)c2cc1OC`, the results for the IC50 in data set [1], in data set [2] and in [3] were 5.15 µM, 5.8 µM and 4.5 µM, respectively.
Taken in the same sequence, the figures for `COc1cc2[se]n(-c3ccc(OCCCCN4CCCCC4)cc3)c(=O)c2cc1OC` were 3.41 µM, 5.72 µM and 4.32 µM.
In the same order, the values of `COc1cc2[se]n(-c3ccc(CCN4CCCCC4)cc3)c(=O)c2cc1OC` are 10.5 µM, over 15 µM and 3.87 µM.
On to `O=c1c2ccccc2[se]n1-c1ccccc1` [EBSELEN], for which the IC50 in data set [1] was over 15 µM; in data set [2] it was 10.6 µM; in [3], over 15 µM. In addition, the result in data set [4] was Active. The Activity stood at 183.19 µM/min in [5]; 166.44 µM/min in data set [6]; 152.18 µM/min in [7]; 130.27 µM/min in data set [8]; 88.35 µM/min in data set [9]; 125.93 µM/min in data set [10]. For the same molecule, the Activity in data set [11] is 119.01 µM/min; in data set [12], 107.82 µM/min; in [13], 105.89 µM/min; in [14], 1.64 mM⁻¹ min⁻¹; in data set [15], 92.43 µM/min; in data set [17], 2.85 mM⁻¹ min⁻¹. Further, the figures for the Kcat in data set [16] and in data set [18] were 0.0642 s⁻¹ and 0.0393 s⁻¹, respectively. The Vmax was 307.69 µM/min in [16] and 188.68 µM/min in data set [18].
On to `O=c1c2ccccc2[se]n1-c1ccc(CCN2CCCC2)cc1`, for which the IC50 in data set [1] was over 15 µM; in [2], 6.38 µM; in data set [3] it was over 15 µM.
